In this series the test system is CCRIS mutagenicity, Ames/micronucleus/aberration tests. Briefly: CCRIS mutagenicity studies. Conditions: Test System: AMES SALMONELLA TYPHIMURIUM
Setting [1] is: Strain/Indicator: TA98, Metabolic Activation: NONE, Method: PREINCUBATION
[2] abbreviates: Strain/Indicator: TA100, Metabolic Activation: NONE, Method: PREINCUBATION
Setting [3] is: Strain/Indicator: TA98, Metabolic Activation: HAMSTER, LIVER, S-9, AROCLOR 1254 (10%), Method: PREINCUBATION
The mark [4] stands for this setting: Strain/Indicator: TA98, Metabolic Activation: RAT, LIVER, S-9, AROCLOR 1254 (10%), Method: PREINCUBATION
The mark [5] stands for this setting: Strain/Indicator: TA100, Metabolic Activation: HAMSTER, LIVER, S-9, AROCLOR 1254 (10%), Method: PREINCUBATION
Where [6] appears, read: Strain/Indicator: TA100, Metabolic Activation: RAT, LIVER, S-9, AROCLOR 1254 (10%), Method: PREINCUBATION
Setting [7] is: Strain/Indicator: TA1535, Metabolic Activation: HAMSTER, LIVER, S-9, AROCLOR 1254 (10%), Method: PREINCUBATION
Where [8] appears, read: Strain/Indicator: TA1535, Metabolic Activation: NONE, Method: PREINCUBATION
Where [9] appears, read: Strain/Indicator: TA1535, Metabolic Activation: RAT, LIVER, S-9, AROCLOR 1254 (10%), Method: PREINCUBATION
[10] abbreviates: Strain/Indicator: TA1537, Metabolic Activation: HAMSTER, LIVER, S-9, AROCLOR 1254 (10%), Method: PREINCUBATION
[11] abbreviates: Strain/Indicator: TA1537, Metabolic Activation: NONE, Method: PREINCUBATION
Setting [12] is: Strain/Indicator: TA1537, Metabolic Activation: RAT, LIVER, S-9, AROCLOR 1254 (10%), Method: PREINCUBATION

The source made the active and inactive calls. How the calls were made is not given here.

As for `O=[N+]([O-])c1cccc2c1oc1ccccc12`, the mutagenic call by setting is: (Strain/Indicator: TA98(1,8-DNP6), Metabolic Activation: NONE, Method: PREINCUBATION) “active; positive”; (Strain/Indicator: TA98(1,8-DNP6), Metabolic Activation: NONE, Method: SUSPENSION) “active; positive”; (Strain/Indicator: TA98(1,8-DNP6), Metabolic Activation: RAT, LIVER, S-9, PCB (5%), Method: PREINCUBATION) “active; positive”; (Strain/Indicator: TA98(NR), Metabolic Activation: NONE, Method: PREINCUBATION) “active; positive”; (Strain/Indicator: TA98(NR), Metabolic Activation: NONE, Method: SUSPENSION) “active; positive”; (Strain/Indicator: TA98(NR), Metabolic Activation: RAT, LIVER, S-9 (10%), Method: PREINCUBATION) “active; positive”. Moreover, the mutagenic call is “active; positive” (Strain/Indicator: TA98(NR), Metabolic Activation: RAT, LIVER, S-9, 3-METHYLCHOLANTHRENE (10%), Method: PREINCUBATION); “active; positive” (Strain/Indicator: TA98(NR), Metabolic Activation: RAT, LIVER, S-9, BETA-NAPHTHOFLAVONE (10%), Method: PREINCUBATION); “active; positive” (Strain/Indicator: TA98(NR), Metabolic Activation: RAT, LIVER, S-9, PCB (5%), Method: PREINCUBATION); “active; positive” (Strain/Indicator: TA98(NR), Metabolic Activation: RAT, LIVER, S-9, PCB (10%), Method: PREINCUBATION); “active; positive” (Strain/Indicator: TA98(NR), Metabolic Activation: RAT, LIVER, S-9, PHENOBARBITAL (10%), Method: PREINCUBATION); “active; positive” under setting [1]. The mutagenic call by setting is: (Strain/Indicator: TA98, Metabolic Activation: NONE, Method: SUSPENSION) “active; positive”; (Strain/Indicator: TA98, Metabolic Activation: RAT, LIVER, S-9, PCB (5%), Method: PREINCUBATION) “active; positive”; (Strain/Indicator: TA98, Metabolic Activation: RAT, LIVER, S-9, PCB, Method: SUSPENSION) “active; positive”; under setting [2], “inactive; negative”; (Strain/Indicator: TA100, Metabolic Activation: NONE, Method: SUSPENSION) “active; positive”; (Strain/Indicator: TA100, Metabolic Activation: RAT, LIVER, S-9, PCB (5%), Method: PREINCUBATION) “active; positive”. In addition, the mutagenic call (Strain/Indicator: TA100, Metabolic Activation: RAT, LIVER, S-9, PCB, Method: SUSPENSION) was “active; positive”.
For the molecule `OCCN1CN(CCO)CN(CCO)C1`, the mutagenic call was “inactive; negative” under setting [3]; “inactive; negative” under setting [1]; “inactive; negative” under setting [4]; “active; positive” under setting [5]; “inactive; negative” under setting [2]; “inactive; negative” under setting [6]. Further, the mutagenic call is “inactive; negative” under setting [7]; “inactive; negative” under setting [8]; “inactive; negative” under setting [9]; “inactive; negative” under setting [10]; “inactive; negative” under setting [11]; “inactive; negative” under setting [12].
On to `CCN(CC)CC`, for which the mutagenic call is, setting by setting: under setting [3], “inactive; negative”; under setting [1], “inactive; negative”; under setting [4], “inactive; negative”; under setting [5], “inactive; negative”; under setting [2], “inactive; negative”; under setting [6], “inactive; negative”. Further, the mutagenic call runs as follows: under setting [7], “inactive; negative”; under setting [8], “inactive; negative”; under setting [9], “inactive; negative”; under setting [10], “inactive; negative”; under setting [11], “inactive; negative”; under setting [12], “inactive; negative”.
With `CC(=O)O[C@H]1CC[C@]2(C)[C@H]3CC[C@]4(C)[C@@H]([C@H](C)CCCC(C)C)CC[C@H]4[C@@H]3C[C@@H]3N(N4C(=O)c5ccccc5C4=O)[C@@]32C1` (some centres not stated), the mutagenic call was “active; positive” (Strain/Indicator: TA97A, Metabolic Activation: NONE, Method: STANDARD PLATE); “active; positive” (Strain/Indicator: TA97A, Metabolic Activation: RAT, LIVER, S-9, AROCLOR 1254, Method: STANDARD PLATE); “active; positive” (Strain/Indicator: TA98, Metabolic Activation: NONE, Method: STANDARD PLATE); “active; positive” (Strain/Indicator: TA100, Metabolic Activation: NONE, Method: STANDARD PLATE); “active; positive” (Strain/Indicator: TA100, Metabolic Activation: RAT, LIVER, S-9, AROCLOR 1254, Method: STANDARD PLATE); “inactive; negative” (Strain/Indicator: TA102, Metabolic Activation: NONE, Method: STANDARD PLATE). The mutagenic call runs as follows: (Strain/Indicator: TA102, Metabolic Activation: RAT, LIVER, S-9, AROCLOR 1254, Method: STANDARD PLATE) “active; positive”; (Strain/Indicator: TA104, Metabolic Activation: NONE, Method: STANDARD PLATE) “active; positive”; (Strain/Indicator: TA104, Metabolic Activation: RAT, LIVER, S-9, AROCLOR 1254, Method: STANDARD PLATE) “active; positive”.

These data come from PubChem BioAssay AID1259407 (Chemical Carcinogenesis Research Information System (CCRIS), 2018).
